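Step 1: Grow cells in 96-well plates. Step 2: Expose to compound for 48 hours at 5 concentrations. Step 3: Interpolate endpoints linearly; if unreached, use highest concentration. GI50 marks 50% less growth.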 Activity calls are given as the source filed them. Rule as the data show it: active = GI50 up to about 1.1 µM and inactive = higher.
Experiments:
Assay in all cases: NCI anticancer screen, dose series, 48 h
786-0 = tested on: 786-0
A498 = tested on: A498
A549 = tested on: A549
ACHN = tested on: ACHN
CAKI-1 = tested on: CAKI-1
CCRF-CEM = tested on: CCRF-CEM
COLO 205 = tested on: COLO 205
DU-145 = tested on: DU-145
EKVX = tested on: EKVX
HCT-116 = tested on: HCT-116
HCT-15 = tested on: HCT-15
HL-60 = tested on: HL-60
HOP-62 = tested on: HOP-62
HOP-92 = tested on: HOP-92
HT-29 = tested on: HT-29
Hs-578T = tested on: Hs-578T
IGROV-1 = tested on: IGROV-1
K562 = tested on: K562
KM12 = tested on: KM12
LOX IMVI = tested on: LOX IMVI
M14 = tested on: M14
MCF7 = tested on: MCF7
MDA-MB-231 = tested on: MDA-MB-231
MDA-MB-435 = tested on: MDA-MB-435
MDA-N = tested on: MDA-N
MOLT-4 = tested on: MOLT-4
Malme-3M = tested on: Malme-3M
NCI-H226 = tested on: NCI-H226
NCI-H23 = tested on: NCI-H23
NCI-H460 = tested on: NCI-H460
NCI-H522 = tested on: NCI-H522
NCI/ADR-RES = tested on: NCI/ADR-RES
OVCAR-3 = tested on: OVCAR-3
OVCAR-4 = tested on: OVCAR-4
OVCAR-5 = tested on: OVCAR-5
OVCAR-8 = tested on: OVCAR-8
PC-3 = tested on: PC-3
RPMI-8226 = tested on: RPMI-8226
RXF 393 = tested on: RXF 393
SF-268 = tested on: SF-268
SF-295 = tested on: SF-295
SF-539 = tested on: SF-539
SK-MEL-28 = tested on: SK-MEL-28
SK-MEL-2 = tested on: SK-MEL-2
SK-MEL-5 = tested on: SK-MEL-5
SN12C = tested on: SN12C
SNB-19 = tested on: SNB-19
SNB-75 = tested on: SNB-75
SR = tested on: SR
SW-620 = tested on: SW-620
T47D = tested on: T47D
TK-10 = tested on: TK-10
U-251 = tested on: U-251
UACC-257 = tested on: UACC-257
UACC-62 = tested on: UACC-62
UO-31 = tested on: UO-31
BT-549 = tested on: BT-549
SK-OV-3 = tested on: SK-OV-3
HCC 2998 = tested on: HCC 2998

CCOC(=O)NC(NC(C)CC)(C(F)(F)F)C(F)(F)F (stereo not drawn)
GI50 (786-0): > 100 µM (inactive)
GI50 (A498): > 100 µM (inactive)
GI50 (A549): > 100 µM (inactive)
GI50 (ACHN): > 100 µM (inactive)
GI50 (CAKI-1): > 100 µM (inactive)
GI50 (CCRF-CEM): > 100 µM (inactive)
GI50 (COLO 205): > 100 µM (inactive)
GI50 (DU-145): > 100 µM (inactive)
GI50 (EKVX): > 100 µM (inactive)
GI50 (HCT-116): > 100 µM (inactive)
GI50 (HCT-15): > 100 µM
GI50 (HL-60): > 100 µM (inactive)
GI50 (HOP-62): > 100 µM (inactive)
GI50 (HOP-92): > 100 µM (inactive)
GI50 (HT-29): > 100 µM (inactive)
GI50 (Hs-578T): > 100 µM (inactive)
GI50 (IGROV-1): > 100 µM (inactive)
GI50 (K562): > 100 µM (inactive)
GI50 (KM12): > 100 µM (inactive)
GI50 (LOX IMVI): > 100 µM (inactive)
GI50 (M14): > 100 µM (inactive)
GI50 (MCF7): > 100 µM (inactive)
GI50 (MDA-MB-231): > 100 µM (inactive)
GI50 (MDA-MB-435): > 100 µM (inactive)
GI50 (MDA-N): > 100 µM (inactive)
GI50 (MOLT-4): > 100 µM (inactive)
GI50 (Malme-3M): > 100 µM (inactive)
GI50 (NCI-H226): > 100 µM (inactive)
GI50 (NCI-H23): > 100 µM (inactive)
GI50 (NCI-H460): > 100 µM (inactive)
GI50 (NCI-H522): > 100 µM (inactive)
GI50 (NCI/ADR-RES): > 100 µM (inactive)
GI50 (OVCAR-3): > 100 µM (inactive)
GI50 (OVCAR-4): > 100 µM (inactive)
GI50 (OVCAR-5): > 100 µM (inactive)
GI50 (OVCAR-8): > 100 µM (inactive)
GI50 (PC-3): > 100 µM (inactive)
GI50 (RPMI-8226): > 100 µM (inactive)
GI50 (RXF 393): > 100 µM (inactive)
GI50 (SF-268): > 100 µM (inactive)
GI50 (SF-295): > 100 µM (inactive)
GI50 (SF-539): > 100 µM (inactive)
GI50 (SK-MEL-28): > 100 µM (inactive)
GI50 (SK-MEL-2): > 100 µM (inactive)
GI50 (SK-MEL-5): > 100 µM (inactive)
GI50 (SN12C): > 100 µM (inactive)
GI50 (SNB-19): > 100 µM (inactive)
GI50 (SNB-75): > 100 µM (inactive)
GI50 (SR): > 100 µM (inactive)
GI50 (SW-620): 42.3 µM (inactive)
GI50 (T47D): > 100 µM (inactive)
GI50 (TK-10): > 100 µM (inactive)
GI50 (U-251): 81.5 µM (inactive)
GI50 (UACC-257): > 100 µM (inactive)
GI50 (UACC-62): > 100 µM (inactive)
GI50 (UO-31): > 100 µM (inactive)

COC(=O)C1C(O)C(C(=O)OC)C(C)N(C)C1C (stereo not drawn)
GI50 (786-0): > 100 µM (inactive)
GI50 (A498): > 100 µM (inactive)
GI50 (A549): > 100 µM (inactive)
GI50 (ACHN): > 100 µM (inactive)
GI50 (BT-549): > 100 µM (inactive)
GI50 (CAKI-1): > 100 µM (inactive)
GI50 (CCRF-CEM): > 100 µM (inactive)
GI50 (COLO 205): > 100 µM (inactive)
GI50 (EKVX): > 100 µM (inactive)
GI50 (HCT-116): > 100 µM (inactive)
GI50 (HCT-15): > 100 µM
GI50 (HL-60): > 100 µM (inactive)
GI50 (HOP-62): > 100 µM (inactive)
GI50 (HOP-92): > 100 µM (inactive)
GI50 (HT-29): > 100 µM (inactive)
GI50 (IGROV-1): > 100 µM (inactive)
GI50 (K562): > 100 µM (inactive)
GI50 (KM12): > 100 µM (inactive)
GI50 (LOX IMVI): > 100 µM (inactive)
GI50 (M14): > 100 µM (inactive)
GI50 (MCF7): > 100 µM (inactive)
GI50 (MDA-MB-231): > 100 µM (inactive)
GI50 (MDA-MB-435): > 100 µM (inactive)
GI50 (MDA-N): > 100 µM (inactive)
GI50 (MOLT-4): > 100 µM (inactive)
GI50 (NCI-H226): > 100 µM (inactive)
GI50 (NCI-H23): > 100 µM (inactive)
GI50 (NCI-H460): > 100 µM (inactive)
GI50 (NCI/ADR-RES): > 100 µM (inactive)
GI50 (OVCAR-3): > 100 µM (inactive)
GI50 (OVCAR-4): > 100 µM (inactive)
GI50 (OVCAR-5): > 100 µM (inactive)
GI50 (OVCAR-8): > 100 µM (inactive)
GI50 (PC-3): > 100 µM (inactive)
GI50 (RPMI-8226): > 100 µM (inactive)
GI50 (RXF 393): > 100 µM (inactive)
GI50 (SF-295): > 100 µM (inactive)
GI50 (SF-539): > 100 µM (inactive)
GI50 (SK-MEL-28): > 100 µM (inactive)
GI50 (SK-MEL-2): > 100 µM (inactive)
GI50 (SK-MEL-5): > 100 µM (inactive)
GI50 (SK-OV-3): > 100 µM (inactive)
GI50 (SN12C): > 100 µM (inactive)
GI50 (SNB-19): > 100 µM (inactive)
GI50 (SR): > 100 µM (inactive)
GI50 (SW-620): > 100 µM (inactive)
GI50 (TK-10): > 100 µM (inactive)
GI50 (U-251): > 100 µM (inactive)
GI50 (UACC-257): > 100 µM (inactive)
GI50 (UACC-62): > 100 µM (inactive)
GI50 (UO-31): > 100 µM (inactive)

COC(=O)Cc1cccc2c1CCC2=O
GI50 (786-0): > 100 µM (inactive)
GI50 (A498): > 100 µM (inactive)
GI50 (A549): > 100 µM (inactive)
GI50 (ACHN): > 100 µM (inactive)
GI50 (CCRF-CEM): > 100 µM (inactive)
GI50 (COLO 205): > 100 µM (inactive)
GI50 (DU-145): > 100 µM (inactive)
GI50 (EKVX): > 100 µM (inactive)
GI50 (HCC 2998): > 100 µM (inactive)
GI50 (HCT-116): > 100 µM (inactive)
GI50 (HCT-15): > 100 µM
GI50 (HL-60): > 100 µM (inactive)
GI50 (HOP-62): > 100 µM (inactive)
GI50 (HOP-92): > 100 µM (inactive)
GI50 (HT-29): > 100 µM (inactive)
GI50 (Hs-578T): > 100 µM (inactive)
GI50 (IGROV-1): > 100 µM (inactive)
GI50 (K562): > 100 µM (inactive)
GI50 (KM12): > 100 µM (inactive)
GI50 (LOX IMVI): > 100 µM (inactive)
GI50 (M14): > 100 µM (inactive)
GI50 (MCF7): > 100 µM (inactive)
GI50 (MDA-MB-231): > 100 µM (inactive)
GI50 (MDA-MB-435): > 100 µM (inactive)
GI50 (MDA-N): > 100 µM (inactive)
GI50 (MOLT-4): > 100 µM (inactive)
GI50 (Malme-3M): > 100 µM (inactive)
GI50 (NCI-H226): > 100 µM (inactive)
GI50 (NCI-H23): > 100 µM (inactive)
GI50 (NCI-H460): > 100 µM (inactive)
GI50 (NCI-H522): > 100 µM (inactive)
GI50 (NCI/ADR-RES): > 100 µM (inactive)
GI50 (OVCAR-3): > 100 µM (inactive)
GI50 (OVCAR-4): > 100 µM (inactive)
GI50 (OVCAR-5): > 100 µM (inactive)
GI50 (OVCAR-8): > 100 µM (inactive)
GI50 (PC-3): > 100 µM (inactive)
GI50 (RPMI-8226): > 100 µM (inactive)
GI50 (RXF 393): > 100 µM (inactive)
GI50 (SF-268): > 100 µM (inactive)
GI50 (SF-295): > 100 µM (inactive)
GI50 (SF-539): > 100 µM (inactive)
GI50 (SK-MEL-28): > 100 µM (inactive)
GI50 (SK-MEL-5): > 100 µM (inactive)
GI50 (SK-OV-3): > 100 µM (inactive)
GI50 (SN12C): > 100 µM (inactive)
GI50 (SNB-19): > 100 µM (inactive)
GI50 (SNB-75): > 100 µM (inactive)
GI50 (SR): > 100 µM (inactive)
GI50 (SW-620): > 100 µM (inactive)
GI50 (T47D): > 100 µM (inactive)
GI50 (TK-10): > 100 µM (inactive)
GI50 (U-251): > 100 µM (inactive)
GI50 (UACC-257): > 100 µM (inactive)
GI50 (UACC-62): > 100 µM (inactive)
GI50 (UO-31): > 100 µM (inactive)
